Laboratory results from patent US8354430B2, “Monohydrochloride salt of 1-[3-[3-(4-chlorophenyl) propoxy]propyl]-piperidine” (priority 2005, dated 2013).

How the values were obtained:
mice [1] = assay: Natural forgetting, two-trial object recognition; format: in vivo, mouse
Protocol: Methods: Mice were submitted to the first trial (T1), placed in the box containing two identical objects and the time required by each animal to complete 8 sec of object exploration was determined. Exploration was considered to be directing the nose at a distance closer than 2 cm to the object and/or touching the object. Immediately after the first trial mice were treated with the vehicle or tacrine (0.25 mg/kg, i.p.). […] Mice were placed in the box for 5 min and exploration of each object together with motor activity was determined. The following parameters were measured: […]

Human H1R = Human H1R (Homo sapiens, UniProt P35367); assay: Histamine-induced increase in [35S]GTPγS binding; format: biochemical; conditions: read-out: Ki or IC50, [35S]GTPγS
[2] = 13-week repeat oral dose study in rats; conditions: rat, in vivo, read-out: NOAEL (no observed adverse effect level)
mice [3] = assay: Kainate-induced temporal lobe seizures in mice; format: in vivo, mouse
Protocol: Unilateral injection of kainic acid (1 nmol in […]) into the dorsal hippocampus in mice induces a non-convulsive status that results in spontaneous recurrent focal seizures after 2-3 weeks. Seizures (5 to 20 times per hour in quiet mice) are characterized by a behavioral arrest and/or stereotypies, concomitant with spike and poly-spike discharges recorded in the injected hippocampus. All AEDs tested in this model (valproate, carbamazepine, phenytoin, levetiracetam) are without significant effects, except benzodiazepines which transiently suppress seizures. This model reproduces the behavioral, EEG, pharmacological and histological characteristics of mesial temporal lobe epilepsy, a form of epilepsy which is often drug-resistant in humans. After a recovery period, implanted mice (for EEG recording) were injected with kainic acid. They were EEG recorded at least 3 weeks after injection for selection of animals with consistent hippocampal seizure. Then, after a 20 min reference recording period, selected mice received either 1-[3-[3-(4-chlorophenyl)propoxy]propyl]piperidine monohydrochloride (10 or 20 mg/kg, i.p.) or saline and the recording was continued for 60 min. Treatments were given in a counter balanced order (after a one week washout period between two sessions).

rats = assay: Acute toxicity in rat; format: in vivo; conditions: for no-effect dose: in vivo
[4] = Stability to oxidation conditions (melting points under nitrogen and oxygen atmosphere); format: physicochemical
Protocol: Melting points of the above salts were also determined under nitrogen and oxygen atmosphere, in order to verify their stability to oxidation conditions.

human H3R = human H3R (Homo sapiens, UniProt Q9Y5N1); assay: A23187-evoked [3H]arachidonic acid release from CHO cells expressing human H3R; format: cell-based; parameters: expressed in transfected cells; host or cells: CHO cells; conditions: 1 μM, human H3R 300-400 fmol/mg protein
[5] = 13-week repeat oral dose study in monkeys; conditions: monkey, in vivo
From the text: This dose was defined as the NOAEL in monkeys.

Human H4R = Human H4R (Homo sapiens, UniProt Q9H3N8); assay: [3H]histamine binding assay; conditions: read-out: Ki or IC50, Human H4R
GAERS rats = assay: Absence epilepsy in GAERS rat; format: in vivo
From the text: A strain of Wistar rats with spontaneously generalized non convulsive seizures (absence seizures) has been developed in Strasbourg (Genetic Absence Epilepsy Rats of Strasbourg or GAERS). Seizures are characterized by bilateral and synchronous spike-and-wave discharges (7-9 Hz) on EEG, concomitant with behavioral arrests. These discharges generally last about 20 sec and occur spontaneously every minute when the animals are in a state of quiet wakefulness. Pharmacological reactivity of this model is similar to human absence-epilepsy (e.g., valproate and ethosuccimide are protective). After a recovery period, implanted rats (cortical and hippocampal EEG electrodes) were recorded over a 20 min reference period. […] Rats received the alternative treatment one week later. Cumulated duration of absence-seizures was measured by 20 min periods during the two sessions. Fast Fourier transform analysis of EEG recording allowed detection of any rhythm change during both ictal and inter-ictal periods (background activity).

H2R = H2R (Cavia porcellus, UniProt P47747); assay: [125I]iodoaminopotentidine binding assay to the guinea pig H2 receptor; conditions: read-out: Ki or IC50, H2R
mice [6] = assay: Sleep-wake cycle study in mice (EEG/EMG); format: in vivo, mouse
Protocol: Animals were chronically implanted with cortical and muscle electrodes to record EEG and EMG respectively, to allow monitoring their sleep-wake cycle. After recovery from surgery, animals were housed individually in a sound-proof recorded room maintaining at appropriate ambient temperature on a 12 h light/dark cycle. Polygraphic recordings were performed during 4 days to collect reference qualitative and quantitative data of sleep-wake control in each individual. Then, pharmacological evaluation was performed over 24 h sessions and analyzed by successive 30 sec epochs. Wakefulness and sleep states were identified as previously described for cats [Petitjean et al., Brain Res., 1975, 88: 439-53] and mice [Valatx and Bugat, Brain Res., 1974, 69: 315-30].
Polygraphic recordings were started 15 days after surgery (5 days recovery plus 10 days acclimation to the recording wires). Sleep-wake recording criteria included wakefulness (W), slow wave sleep (SWS) and paradoxical sleep (PS). Spectral analysis of EEG was performed by Fast-Fourier Transform in the 0.8-2.5 Hz, 8-15 Hz and 30-60 Hz frequency bands.

mice [7] = assay: Scopolamine-induced learning deficit, two-trial object recognition; format: in vivo, mouse; conditions: i.p., scopolamine 0.3 mg/kg i.p.
Protocol: Lett., 1994, 170, 117-120; Bartolini et al., Biochem. Nehav., 1996, 53, 277-283]. Methods: Mice were allowed to explore a box for 30 min in the presence of two objects. The day after, mice were submitted to two trials spaced by an interval of 60 min. During the first trial (T1), mice were placed in the box containing the two identical objects and the time required by each animal to complete 20 sec of object exploration was determined. Exploration was considered to be directing the nose at a distance closer than 2 cm to the object and/or touching the object. For the second trial (T2), one of the objects presented in the first trial was replaced by and unknown novel object. Mice were placed in the box for 5 min and exploration of each object together with motor activity was determined. The following parameters were measured.

Human H1R, sequence (P35367 whole entry): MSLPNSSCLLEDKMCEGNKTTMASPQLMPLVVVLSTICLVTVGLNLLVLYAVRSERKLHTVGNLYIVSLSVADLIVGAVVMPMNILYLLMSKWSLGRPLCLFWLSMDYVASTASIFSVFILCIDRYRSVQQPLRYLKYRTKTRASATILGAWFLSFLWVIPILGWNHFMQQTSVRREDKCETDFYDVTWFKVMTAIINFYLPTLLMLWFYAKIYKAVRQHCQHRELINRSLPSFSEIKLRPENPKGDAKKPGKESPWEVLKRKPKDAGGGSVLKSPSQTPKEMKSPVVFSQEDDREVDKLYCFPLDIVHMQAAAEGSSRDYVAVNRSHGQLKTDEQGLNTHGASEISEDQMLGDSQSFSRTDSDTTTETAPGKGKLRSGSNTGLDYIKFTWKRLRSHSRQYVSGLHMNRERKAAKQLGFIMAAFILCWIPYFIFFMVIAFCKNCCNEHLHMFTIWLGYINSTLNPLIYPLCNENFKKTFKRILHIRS
Human H4R, sequence (Q9H3N8 whole entry): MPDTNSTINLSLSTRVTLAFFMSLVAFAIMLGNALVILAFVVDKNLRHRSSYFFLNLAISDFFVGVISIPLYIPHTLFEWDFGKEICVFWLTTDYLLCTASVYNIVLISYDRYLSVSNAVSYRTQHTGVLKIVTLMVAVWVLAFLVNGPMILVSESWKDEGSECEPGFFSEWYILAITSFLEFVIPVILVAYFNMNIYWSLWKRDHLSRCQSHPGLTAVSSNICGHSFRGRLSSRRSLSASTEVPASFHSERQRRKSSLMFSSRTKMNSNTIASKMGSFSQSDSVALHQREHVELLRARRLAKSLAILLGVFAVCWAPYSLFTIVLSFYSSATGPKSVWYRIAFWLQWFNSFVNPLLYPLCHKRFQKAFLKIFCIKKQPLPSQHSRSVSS
human H3R, sequence (Q9Y5N1 whole entry): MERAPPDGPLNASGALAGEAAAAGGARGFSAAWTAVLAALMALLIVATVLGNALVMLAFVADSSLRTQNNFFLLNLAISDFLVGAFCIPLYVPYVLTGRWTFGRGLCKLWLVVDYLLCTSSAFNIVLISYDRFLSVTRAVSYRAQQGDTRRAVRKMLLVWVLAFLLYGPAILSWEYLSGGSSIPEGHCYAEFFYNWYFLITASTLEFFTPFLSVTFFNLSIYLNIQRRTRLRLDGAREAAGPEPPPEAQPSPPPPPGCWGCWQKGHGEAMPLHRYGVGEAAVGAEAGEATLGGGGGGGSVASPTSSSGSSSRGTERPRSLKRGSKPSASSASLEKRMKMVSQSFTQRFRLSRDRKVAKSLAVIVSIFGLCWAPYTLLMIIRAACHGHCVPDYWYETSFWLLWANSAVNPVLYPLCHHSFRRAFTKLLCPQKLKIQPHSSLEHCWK
H2R, sequence (P47747 whole entry): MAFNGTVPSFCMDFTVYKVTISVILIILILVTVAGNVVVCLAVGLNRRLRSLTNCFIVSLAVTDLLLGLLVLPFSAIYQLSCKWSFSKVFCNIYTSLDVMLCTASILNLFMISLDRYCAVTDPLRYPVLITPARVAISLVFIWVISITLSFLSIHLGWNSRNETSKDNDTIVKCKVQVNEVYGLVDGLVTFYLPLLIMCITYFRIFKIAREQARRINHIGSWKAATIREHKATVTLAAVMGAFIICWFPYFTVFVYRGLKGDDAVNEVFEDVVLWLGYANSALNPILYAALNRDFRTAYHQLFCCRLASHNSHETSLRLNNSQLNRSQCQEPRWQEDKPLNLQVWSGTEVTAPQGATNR

## Cl.Clc1ccc(CCCOCCCN2CCCCC2)cc1 [1-[3-[3-(4-chlorophenyl)propoxy]propyl]-piperidine monohydrochloride]
Mice [1]; 15 mg/kg i.p. together with tacrine 0.25 mg/kg i.p.
  natural forgetting, association with tacrine: without change in the tacrine effect
Mice [1]; 15 mg/kg, i.p., 30 min before T1
  natural forgetting: significantly reduced
Human H1R
  IC50: > 10 µM
[2]
  NOAEL at 13 weeks: 30 mg/kg/day
Mice [3]; 10 mg/kg, i.p., first 40 min after administration
  cumulated duration and number of hippocampal discharges: reduced
Mice [3]; 20 mg/kg i.p., at 60 min
  cumulated duration of hippocampal discharges: also reduced
rats; iv
  no-effect dose: 12 mg/kg
rats; po
  no-effect dose: > 50 mg/kg
rats; oral
  maximum non lethal oral dose: 100 mg/kg
[4]; N2 atmosphere
  Melting point, N2 atmosphere (stability to oxidation conditions): 117.68 °C
[4]; O2 atmosphere
  Melting point, O2 atmosphere (stability to oxidation conditions): 117.54 °C
[4]; melting points under nitrogen vs oxygen atmosphere
  stability to oxidation conditions: better profile of stability to oxidation conditions than other salts
Human H3R
  reduction of the A23187-evoked [3H]AA release: 20%
[5]
  NOAEL at 13 weeks: 5 mg/kg/day
Human H4R
  Ki: > 100 µM
GAERS rats; 5 mg/kg, i.p.
  reduction of cumulated duration of spike-and-wave discharges vs. saline: 25%
GAERS rats; 20 mg/kg, i.p.
  reduction of cumulated duration of spike-and-wave discharges vs. saline: 77%
GAERS rats; 20 mg/kg, i.p., 20, 40 and 60 min after administration
  number and cumulated durations of spike and wave discharges: significantly decreased
GAERS rats; epilepsy models
  EEG background activity (spectral analysis of inter-ictal periods): not associated with significant change in EEG background activity
H2R
  Ki: ~5 µM
Mice [6]; 10 mg/kg oral
  increase in W duration: 29%
Mice [6]; 20 mg/kg oral
  increase in W duration: 69%
Mice [6]; oral
  behavioral change in treated mice: No behavioral change
Mice [6]; oral, 2.5, 5, 10 or 20 mg/kg
  awakening (W) at the expense of SWS and PS: dose-dependent increase in awakening
Mice [7]; 5 mg/kg
  reversal of scopolamine-induced amnesia: a reversal trend appeared without being significant
Mice [7]; 15 mg/kg
  reversal of scopolamine-induced amnesia: significantly (p=0.0056) reversed
